Test results reported in the supplement of paper PMC10307832.

What was measured:
Assay in all cases: relative viability (nuclei count vs DMSO), 5 days (fraction); higher = more cells survive
Pictilisib + OSI-027 = compound: CS(=O)(=O)N1CCN(Cc2cc3nc(-c4cccc5[nH]ncc45)nc(N4CCOCC4)c3s2)CC1 [Pictilisib] + COc1cccc2cc(-c3nc([C@H]4CC[C@H](C(=O)O)CC4)n4ncnc(N)c34)[nH]c12 [OSI-027] (partner 0.5 µM)
Method in brief: (§1)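 Dosing by pin tool came one day after lung cancer cell lines were seeded in 1536-well plates, using either one drug or a fixed anchor-drug dose plus five library-drug doses (not always all listed) in √10 steps. After 5 days, nuclei were counted on 4× images. Relative viability is treated-well nuclei count divided by vehicle-well nuclei count, and values are medians of duplicate plates.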

MK-2206 + Pictilisib = compound: NC1(c2ccc(-c3nc4ccn5c(=O)[nH]nc5c4cc3-c3ccccc3)cc2)CCC1 [MK-2206] + CS(=O)(=O)N1CCN(Cc2cc3nc(-c4cccc5[nH]ncc45)nc(N4CCOCC4)c3s2)CC1 [Pictilisib] (partner 1 µM)
Method in brief: as §1

MK-2206 + Navitoclax = compound: NC1(c2ccc(-c3nc4ccn5c(=O)[nH]nc5c4cc3-c3ccccc3)cc2)CCC1 [MK-2206] + CC1(C)CCC(c2ccc(Cl)cc2)=C(CN2CCN(c3ccc(C(=O)NS(=O)(=O)c4ccc(N[C@H](CCN5CCOCC5)CSc5ccccc5)c(S(=O)(=O)C(F)(F)F)c4)cc3)CC2)C1 [Navitoclax] (partner 0.5 µM)
Method in brief: as §1

MK-2206 + Linsitinib = compound: NC1(c2ccc(-c3nc4ccn5c(=O)[nH]nc5c4cc3-c3ccccc3)cc2)CCC1 [MK-2206] + C[C@]1(O)C[C@@H](c2nc(-c3ccc4ccc(-c5ccccc5)nc4c3)c3c(N)nccn32)C1 [Linsitinib] (partner 1 µM)
Method in brief: as §1

Pictilisib + Bortezomib = compound: CS(=O)(=O)N1CCN(Cc2cc3nc(-c4cccc5[nH]ncc45)nc(N4CCOCC4)c3s2)CC1 [Pictilisib] + CC(C)C[C@H](NC(=O)[C@H](Cc1ccccc1)NC(=O)c1cnccn1)B(O)O [Bortezomib] (partner 0.002 µM)
Method in brief: as §1

| Cell Line | relative viability (Pictilisib + OSI-027; first compound 0.02 µM) | relative viability (Pictilisib + OSI-027; first compound 0.06325 µM) | relative viability (Pictilisib + OSI-027; first compound 0.6325 µM) | relative viability (Pictilisib + OSI-027; first compound 2 µM) | relative viability (MK-2206 + Pictilisib; first compound 0.01 µM) | relative viability (MK-2206 + Pictilisib; first compound 0.03162 µM) | relative viability (MK-2206 + Pictilisib; first compound 0.3162 µM) | relative viability (MK-2206 + Pictilisib; first compound 1 µM) | relative viability (MK-2206 + Navitoclax; first compound 0.01 µM) | relative viability (MK-2206 + Navitoclax; first compound 0.03162 µM) | relative viability (MK-2206 + Navitoclax; first compound 0.3162 µM) | relative viability (MK-2206 + Navitoclax; first compound 1 µM) | relative viability (MK-2206 + Linsitinib; first compound 0.01 µM) | relative viability (MK-2206 + Linsitinib; first compound 0.03162 µM) | relative viability (MK-2206 + Linsitinib; first compound 0.3162 µM) | relative viability (MK-2206 + Linsitinib; first compound 1 µM) | relative viability (Pictilisib + Bortezomib; first compound 0.02 µM) | relative viability (Pictilisib + Bortezomib; first compound 0.06325 µM) | relative viability (Pictilisib + Bortezomib; first compound 0.6325 µM) | relative viability (Pictilisib + Bortezomib; first compound 2 µM) |
| --- | --- | --- | --- | --- | --- | --- | --- | --- | --- | --- | --- | --- | --- | --- | --- | --- | --- | --- | --- | --- |
| NCI-H2085 | 0.706 | 0.802 | 0.303 | 0.284 | 0.516 | 0.415 | 0.416 | 0.438 | 1.09 | 1.19 | 0.902 | 0.825 | 0.915 | 0.85 | 0.815 | 0.692 | 1.08 | 1.07 | 0.871 | 0.467 |
| HCC-366 | 0.955 | 0.822 | 0.432 | 0.104 | 0.19 | 0.124 | 0.126 | 0.12 | 1.04 | 1.11 | 0.736 | 1.04 | 0.637 | 0.675 | 0.364 | 0.384 | 1.08 | 1.01 | 0.691 | 0.189 |
| EPLC-272H | 0.296 | 0.284 | 0.242 | 0.18 | 0.292 | 0.333 | – | 0.336 | 0.915 | 1.18 | – | 1.08 | 1.17 | 1.18 | – | 1.15 | 0.971 | 1.12 | 0.607 | 0.615 |
| 201T | 0.757 | 0.683 | 0.503 | 0.281 | 0.669 | 0.696 | 0.651 | 0.648 | 1.23 | 1.28 | 1.23 | 1.21 | 1.05 | 0.941 | 1.03 | 1.03 | 1.12 | 1.1 | 1.07 | 0.993 |
| NCI-H3122 | 0.909 | 0.786 | 0.435 | 0.172 | 0.542 | 0.558 | 0.491 | 0.434 | 1.02 | 1.03 | 1.01 | 0.958 | 0.942 | 1.07 | 0.927 | 0.91 | 0.99 | 1.05 | 1.04 | 0.601 |
| NCI-H838 | 0.328 | 0.308 | 0.242 | 0.189 | 0.517 | 0.436 | 0.464 | 0.42 | 1.15 | 1.19 | 1.19 | 1.04 | 1 | 1.03 | 1.02 | 0.95 | 0.77 | 0.744 | 0.606 | 0.313 |
| NCI-H1755 | 0.684 | 0.666 | 0.41 | 0.279 | 0.47 | 0.48 | 0.36 | 0.4 | 1.02 | 0.985 | 0.829 | 0.895 | 0.997 | 0.996 | 0.903 | 0.876 | 1.01 | 0.906 | 0.86 | 0.339 |
| HCC-15 | 0.693 | 0.641 | 0.407 | 0.32 | 0.727 | 0.785 | 0.643 | 0.626 | 0.687 | 0.622 | 0.617 | 0.62 | 0.92 | 0.897 | 0.846 | 0.852 | 1.01 | 1.01 | 1.02 | 0.899 |
| NCI-H2087 | 0.503 | 0.446 | 0.32 | 0.237 | 0.817 | 0.933 | 0.833 | 0.671 | 1.14 | 0.905 | 0.906 | 0.912 | 0.965 | 0.906 | 0.791 | 0.914 | 0.733 | 0.772 | 0.953 | 0.503 |
| HCC-78 | 0.334 | 0.376 | 0.285 | 0.275 | 0.25 | 0.202 | 0.204 | 0.162 | 0.735 | 0.875 | 0.732 | 0.488 | 0.505 | 0.576 | 0.388 | 0.316 | 0.458 | 0.384 | 0.294 | 0.2 |
| NCI-H1666 | 0.877 | 0.858 | 0.636 | 0.477 | 0.403 | 0.414 | 0.405 | 0.403 | 0.953 | 0.927 | 0.81 | 0.655 | 0.753 | 0.73 | 0.695 | 0.709 | 0.854 | 0.744 | 0.545 | 0.388 |
| EKVX | 0.697 | 0.352 | 0.561 | 0.269 | 0.415 | 0.447 | 0.424 | 0.445 | 0.859 | 1.05 | 0.934 | 0.65 | 0.96 | 1.09 | 0.846 | 0.801 | 1.13 | 0.937 | 0.66 | 0.394 |
| COR-L 105 | 0.735 | 0.629 | 0.472 | 0.28 | 0.381 | 0.414 | 0.408 | 0.425 | 0.82 | 0.741 | 0.815 | 0.481 | 0.941 | 0.895 | 0.67 | 0.629 | 1.1 | 0.658 | 0.779 | 0.527 |
| NCI-H322M | 0.546 | 0.538 | 0.366 | 0.392 | 0.509 | 0.529 | 0.489 | 0.511 | 1.14 | 1.13 | 1.25 | 1.1 | 0.912 | 0.949 | 0.869 | 0.942 | 1.11 | 1.2 | 0.873 | 0.907 |
| HARA | 0.477 | 0.507 | 0.202 | 0.133 | 0.388 | 0.395 | 0.399 | 0.357 | 1.08 | 1.11 | 1.24 | 1.17 | 0.907 | 0.919 | 0.906 | 0.922 | 1.21 | 1.14 | 1.08 | 0.842 |
| NCI-H2023 | 0.385 | 0.33 | 0.151 | 0.0847 | 0.231 | 0.197 | 0.206 | 0.191 | 0.985 | 1.06 | 0.895 | 0.716 | 0.642 | 0.586 | 0.438 | 0.312 | 1.17 | 0.764 | 0.511 | 0.223 |
